{"source": "patent EP0726760B1", "about": "“SELF-EMULSIBLE FORMULATION FORMING AN OIL-IN-WATER EMULSION” (YISSUM RESEARCH DEVELOPMENT COMPANY OF THE HEBREW …, priority 1993, dated 1995)", "experiment": "Acute toxicity after intraperitoneal injection, 30 days", "design": "species or system souris BALB/c", "conditions": "mouse, in vivo, ip, printed 1:10 (0.5), i.p., read-out: % de survivants après 30 jours", "protocol": "La toxicité aiguë des formulations décrites dans les exemples II - IV, a été examinée sur des souris BALB/c pendant 30 jours. 0.5 ml de chacun des SEOF dilué au 10ème (plus que 300 fois constitue un surdosage) et au 100ème (plus que 30 fois constitue un surdosage) ont été injectés intrapéritonalement au groupe de 4-6 souris. L'état de l'animal a été surveillé pendant plusieurs heures après le processus et ensuite chaque jour, pandant un mois.", "note": "Like-named read-outs stand apart in the source and are kept apart here.", "data": [{"smiles": "OCc1ccccc1", "note": "[BA, alcool benzylique]", "values": [{"measurement": "survival at 720 h", "setting": "BA 1.5 % in water for injection", "value": 100, "unit": "%"}, {"measurement": "survival at 720 h", "setting": "BA 3 % in water for injection", "value": 15, "unit": "%"}]}]}
